What all share (assay): Eurofins kinase selectivity profile against 380 other human recombinant kinases (Table S2)
Common to all, as to assay type: biochemical

Experiment [1] has as its target T1, 380 human recombinant protein kinases (Homo sapiens, UniProt Q13557).
T1 construct: purchased Eurofins (Celle Lévescault)
The following applies: CaMKIIδ(h), read-out: Inhibition rate. The method in brief:
(§1)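 Outsourced panel: 380 human recombinant kinases; inhibitor tested at various concentrations; purpose: MK2 selectivity check.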

Experiment [2] concerns the target T2, 380 human recombinant protein kinases (Homo sapiens, UniProt P10721).
T2 construct: purchased Eurofins (Celle Lévescault)
The following applies: cKit(h), read-out: Inhibition rate. The method in brief: as §1

Experiment [3] has as its target T3, 380 human recombinant protein kinases (Homo sapiens, UniProt P54762).
T3 construct: purchased Eurofins (Celle Lévescault)
T3 sequence (P54762 18-984): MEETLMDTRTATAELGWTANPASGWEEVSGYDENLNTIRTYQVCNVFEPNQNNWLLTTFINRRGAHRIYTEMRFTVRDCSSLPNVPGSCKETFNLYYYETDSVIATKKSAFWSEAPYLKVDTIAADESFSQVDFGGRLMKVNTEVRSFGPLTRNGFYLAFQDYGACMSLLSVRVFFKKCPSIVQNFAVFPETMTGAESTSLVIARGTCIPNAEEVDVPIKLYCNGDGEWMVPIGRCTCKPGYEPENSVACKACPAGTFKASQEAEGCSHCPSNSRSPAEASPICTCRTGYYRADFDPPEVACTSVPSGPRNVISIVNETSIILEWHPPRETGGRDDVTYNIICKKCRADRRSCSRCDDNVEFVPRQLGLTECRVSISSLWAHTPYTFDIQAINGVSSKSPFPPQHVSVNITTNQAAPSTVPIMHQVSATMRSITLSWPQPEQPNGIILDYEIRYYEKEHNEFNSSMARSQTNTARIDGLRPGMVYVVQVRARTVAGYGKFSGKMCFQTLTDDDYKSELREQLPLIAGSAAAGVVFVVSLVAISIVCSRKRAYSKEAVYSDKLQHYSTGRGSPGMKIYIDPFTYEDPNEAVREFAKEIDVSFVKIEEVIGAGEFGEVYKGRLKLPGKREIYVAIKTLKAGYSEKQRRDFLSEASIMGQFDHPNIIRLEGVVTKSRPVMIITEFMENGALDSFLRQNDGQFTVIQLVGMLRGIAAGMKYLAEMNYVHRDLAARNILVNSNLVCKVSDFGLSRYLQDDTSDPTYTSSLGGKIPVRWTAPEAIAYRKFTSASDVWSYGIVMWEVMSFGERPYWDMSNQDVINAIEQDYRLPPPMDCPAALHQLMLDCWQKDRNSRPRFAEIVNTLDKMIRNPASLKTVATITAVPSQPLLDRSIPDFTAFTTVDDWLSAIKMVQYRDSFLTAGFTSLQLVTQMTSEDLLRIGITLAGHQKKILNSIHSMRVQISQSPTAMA
Particulars: EphB1(h), read-out: Inhibition rate. The method in brief:
as §1

In experiment [4] the target is T4, 380 human recombinant protein kinases (Homo sapiens, UniProt Q7L7X3).
T4 construct: purchased Eurofins (Celle Lévescault)
T4 sequence (Q7L7X3 1-1001): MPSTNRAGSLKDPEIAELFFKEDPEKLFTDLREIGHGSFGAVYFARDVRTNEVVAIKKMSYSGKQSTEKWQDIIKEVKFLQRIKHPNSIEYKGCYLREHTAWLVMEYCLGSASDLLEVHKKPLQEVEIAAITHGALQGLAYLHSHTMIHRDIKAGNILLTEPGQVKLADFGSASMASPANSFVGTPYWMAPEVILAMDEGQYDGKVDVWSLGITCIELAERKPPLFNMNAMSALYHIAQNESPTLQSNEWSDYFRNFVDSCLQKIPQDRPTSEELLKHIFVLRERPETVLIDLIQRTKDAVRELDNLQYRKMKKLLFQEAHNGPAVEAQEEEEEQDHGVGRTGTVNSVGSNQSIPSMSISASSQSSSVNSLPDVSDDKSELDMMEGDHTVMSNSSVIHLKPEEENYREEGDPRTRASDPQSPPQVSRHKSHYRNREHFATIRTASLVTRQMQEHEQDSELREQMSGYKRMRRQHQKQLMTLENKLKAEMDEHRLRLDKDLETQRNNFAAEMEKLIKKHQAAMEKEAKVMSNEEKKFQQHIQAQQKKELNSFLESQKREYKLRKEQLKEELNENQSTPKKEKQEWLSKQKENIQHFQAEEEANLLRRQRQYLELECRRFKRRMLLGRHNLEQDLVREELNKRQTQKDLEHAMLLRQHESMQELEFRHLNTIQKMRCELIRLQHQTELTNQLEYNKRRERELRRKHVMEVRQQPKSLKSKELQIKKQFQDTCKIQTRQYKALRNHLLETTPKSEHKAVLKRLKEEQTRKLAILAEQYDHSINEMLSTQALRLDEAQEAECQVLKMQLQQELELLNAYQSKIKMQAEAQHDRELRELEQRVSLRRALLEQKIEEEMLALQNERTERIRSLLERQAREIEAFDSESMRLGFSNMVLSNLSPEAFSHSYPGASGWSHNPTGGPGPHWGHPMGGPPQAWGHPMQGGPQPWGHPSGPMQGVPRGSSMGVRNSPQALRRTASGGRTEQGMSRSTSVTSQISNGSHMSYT
Particulars: TAO1(h), read-out: Inhibition rate (%). In short, it runs like this:
as §1

In experiment [5] the target is T5, 380 human recombinant protein kinases (Homo sapiens, UniProt Q14680).
T5 construct: purchased Eurofins (Celle Lévescault)
Particulars: MELK(h), read-out: Inhibition rate. In short, it runs like this: as §1

Experiment [6] has as its target T6, 380 human recombinant protein kinases (Homo sapiens, UniProt P15056, V600E).
T6 construct: purchased Eurofins (Celle Lévescault)
Particulars: B-Raf(V599E)(h), read-out: Inhibition rate. In short, it runs like this: as §1

Experiment [7] deals with T7, 380 human recombinant protein kinases (Homo sapiens, UniProt Q04759).
T7 construct: purchased Eurofins (Celle Lévescault)
The following applies: PKCθ(h), read-out: Inhibition rate. In short, it runs like this: as §1

Data on one compound can be found in article PMC11233931, “Remodeling tumor‐associated macrophage for anti‐cancer effects by rational design of irreversible inhibition of mitogen‐activated protein kinase‐activated protein kinase 2” (MedComm, 2024).

Molecules are shown by their SMILES.

One may read the inhibition as the drop in the measured response relative to a control, in per cent.

T5 sequence (Q14680 whole entry): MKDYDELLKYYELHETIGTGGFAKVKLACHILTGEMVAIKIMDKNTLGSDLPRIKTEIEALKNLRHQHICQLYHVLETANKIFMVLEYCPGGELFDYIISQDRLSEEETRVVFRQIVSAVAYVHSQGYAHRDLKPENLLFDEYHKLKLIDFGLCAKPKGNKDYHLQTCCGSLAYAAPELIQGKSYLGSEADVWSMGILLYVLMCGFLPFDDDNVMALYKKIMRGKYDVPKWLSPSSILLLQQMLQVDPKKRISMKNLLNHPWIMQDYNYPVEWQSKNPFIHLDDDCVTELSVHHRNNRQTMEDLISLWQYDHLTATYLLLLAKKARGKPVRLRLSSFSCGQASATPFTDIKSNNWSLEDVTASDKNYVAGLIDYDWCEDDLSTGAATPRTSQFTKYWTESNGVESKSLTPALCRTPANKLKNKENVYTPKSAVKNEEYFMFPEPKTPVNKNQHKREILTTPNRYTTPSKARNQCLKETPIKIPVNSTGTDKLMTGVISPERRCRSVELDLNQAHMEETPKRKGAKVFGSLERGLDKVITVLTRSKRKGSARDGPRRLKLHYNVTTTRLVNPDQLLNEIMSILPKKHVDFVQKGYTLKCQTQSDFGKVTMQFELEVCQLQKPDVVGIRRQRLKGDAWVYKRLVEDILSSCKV
T1 sequence (Q13557 whole entry): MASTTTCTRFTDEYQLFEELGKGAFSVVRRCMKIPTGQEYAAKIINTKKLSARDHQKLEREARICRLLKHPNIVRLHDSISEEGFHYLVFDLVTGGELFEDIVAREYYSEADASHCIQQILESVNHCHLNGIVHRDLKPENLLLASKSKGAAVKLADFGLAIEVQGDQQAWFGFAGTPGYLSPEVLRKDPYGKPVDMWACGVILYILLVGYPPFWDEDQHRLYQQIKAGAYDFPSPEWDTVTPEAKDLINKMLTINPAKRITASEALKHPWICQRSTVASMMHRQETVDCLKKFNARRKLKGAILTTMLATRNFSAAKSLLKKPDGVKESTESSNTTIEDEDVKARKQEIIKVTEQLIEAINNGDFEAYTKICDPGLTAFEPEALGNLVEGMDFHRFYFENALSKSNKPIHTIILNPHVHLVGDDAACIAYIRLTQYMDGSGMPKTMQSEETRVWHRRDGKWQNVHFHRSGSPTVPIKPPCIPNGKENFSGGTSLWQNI
T6 sequence (P15056 whole entry V600E): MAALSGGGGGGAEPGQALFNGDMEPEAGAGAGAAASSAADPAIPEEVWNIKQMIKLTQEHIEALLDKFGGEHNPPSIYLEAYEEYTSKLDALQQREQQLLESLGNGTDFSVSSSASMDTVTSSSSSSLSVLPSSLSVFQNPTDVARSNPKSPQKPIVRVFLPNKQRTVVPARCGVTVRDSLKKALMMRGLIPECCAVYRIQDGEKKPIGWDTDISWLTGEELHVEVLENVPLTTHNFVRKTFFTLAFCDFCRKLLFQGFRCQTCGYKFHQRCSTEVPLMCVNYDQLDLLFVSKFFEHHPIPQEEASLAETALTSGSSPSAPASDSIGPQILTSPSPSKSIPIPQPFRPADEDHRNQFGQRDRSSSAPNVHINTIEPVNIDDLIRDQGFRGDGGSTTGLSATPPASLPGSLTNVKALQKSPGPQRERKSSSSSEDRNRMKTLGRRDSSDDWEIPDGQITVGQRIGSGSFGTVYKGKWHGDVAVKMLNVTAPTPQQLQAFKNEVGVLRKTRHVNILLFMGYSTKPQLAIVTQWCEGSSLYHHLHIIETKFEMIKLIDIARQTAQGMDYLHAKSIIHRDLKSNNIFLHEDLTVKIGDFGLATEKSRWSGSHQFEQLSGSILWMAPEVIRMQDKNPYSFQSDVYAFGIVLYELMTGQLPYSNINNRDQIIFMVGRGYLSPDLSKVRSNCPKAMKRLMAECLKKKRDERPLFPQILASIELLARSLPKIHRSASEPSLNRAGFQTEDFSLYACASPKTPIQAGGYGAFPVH
T7 sequence (Q04759 whole entry): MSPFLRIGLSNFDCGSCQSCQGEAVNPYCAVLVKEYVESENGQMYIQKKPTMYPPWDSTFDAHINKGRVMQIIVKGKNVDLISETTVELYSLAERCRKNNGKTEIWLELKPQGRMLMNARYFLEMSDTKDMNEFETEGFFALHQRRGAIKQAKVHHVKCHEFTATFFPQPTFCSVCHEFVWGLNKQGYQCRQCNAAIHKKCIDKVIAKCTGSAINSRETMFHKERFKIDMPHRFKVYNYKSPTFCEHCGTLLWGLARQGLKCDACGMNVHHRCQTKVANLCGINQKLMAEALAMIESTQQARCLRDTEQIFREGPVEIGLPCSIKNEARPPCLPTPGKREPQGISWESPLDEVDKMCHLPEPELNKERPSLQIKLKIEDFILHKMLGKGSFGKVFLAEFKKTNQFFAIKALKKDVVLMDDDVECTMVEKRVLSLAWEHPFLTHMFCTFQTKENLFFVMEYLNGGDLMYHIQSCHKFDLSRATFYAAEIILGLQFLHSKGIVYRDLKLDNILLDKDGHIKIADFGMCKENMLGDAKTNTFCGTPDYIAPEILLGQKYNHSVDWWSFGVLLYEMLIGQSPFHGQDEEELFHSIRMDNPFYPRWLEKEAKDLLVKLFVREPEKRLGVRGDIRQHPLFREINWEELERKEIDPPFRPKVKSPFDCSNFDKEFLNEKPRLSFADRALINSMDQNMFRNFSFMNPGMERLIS
T2 sequence (P10721 26-976): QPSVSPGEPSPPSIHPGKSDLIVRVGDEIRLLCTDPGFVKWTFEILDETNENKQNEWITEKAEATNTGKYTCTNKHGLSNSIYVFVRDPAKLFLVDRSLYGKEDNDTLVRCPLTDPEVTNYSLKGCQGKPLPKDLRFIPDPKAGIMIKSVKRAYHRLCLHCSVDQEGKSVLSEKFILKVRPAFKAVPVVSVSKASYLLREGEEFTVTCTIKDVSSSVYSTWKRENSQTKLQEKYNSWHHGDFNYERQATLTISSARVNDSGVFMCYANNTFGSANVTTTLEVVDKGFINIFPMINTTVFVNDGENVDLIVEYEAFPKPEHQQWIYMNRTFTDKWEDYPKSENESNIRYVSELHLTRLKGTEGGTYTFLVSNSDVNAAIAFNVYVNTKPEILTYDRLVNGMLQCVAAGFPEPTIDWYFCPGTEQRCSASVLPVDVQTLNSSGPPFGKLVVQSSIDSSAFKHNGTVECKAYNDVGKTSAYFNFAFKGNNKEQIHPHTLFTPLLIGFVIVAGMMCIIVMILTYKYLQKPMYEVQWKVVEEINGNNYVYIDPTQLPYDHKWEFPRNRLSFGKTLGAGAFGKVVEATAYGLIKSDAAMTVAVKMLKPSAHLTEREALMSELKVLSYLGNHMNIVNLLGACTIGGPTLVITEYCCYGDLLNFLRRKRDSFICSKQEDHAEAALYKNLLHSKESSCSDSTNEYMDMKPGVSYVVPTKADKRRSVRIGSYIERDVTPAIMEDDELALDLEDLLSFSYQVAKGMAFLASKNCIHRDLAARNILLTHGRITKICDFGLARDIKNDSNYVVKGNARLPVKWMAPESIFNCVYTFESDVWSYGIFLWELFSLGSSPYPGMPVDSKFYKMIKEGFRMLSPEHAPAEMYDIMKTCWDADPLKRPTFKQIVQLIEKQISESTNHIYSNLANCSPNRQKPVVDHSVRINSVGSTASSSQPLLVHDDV

As to `C=CC(=O)Nc1cc(-c2cc(-c3cc4c([nH]3)CCNC4=O)ccn2)ccc1OC(F)(F)F` [compound 11], the inhibition at 0.01 µM in experiment [1] (10 nM) was -7%; in experiment [2] (10 nM) it was 1%; in experiment [3] (10 nM), -17%; in experiment [4] (10 nM) it was 3%; in experiment [5] (10 nM) it was -7%; in experiment [6] (10 nM), -6%. Further, the inhibition at 0.01 µM in experiment [7] (10 nM) was determined as 6%. Besides, the inhibition at 0.1 µM was 11% in experiment [1] (100 nM); -14% in experiment [2] (100 nM); -12% in experiment [3] (100 nM); 6% in experiment [4] (100 nM); 5% in experiment [5] (100 nM); -14% in experiment [6] (100 nM). In addition, the inhibition at 0.1 µM in experiment [7] (100 nM) stood at 0%. For the same compound, the inhibition at 1 µM was 20% in experiment [1] (1000 nM); 9% in experiment [2] (1000 nM); 2% in experiment [3] (1000 nM); 11% in experiment [4] (1000 nM); 30% in experiment [5] (1000 nM); -2% in experiment [6] (1000 nM). Besides, the inhibition at 1 µM in experiment [7] (1000 nM) is 4%.
